The numbers were not newly measured in patent publication US20260217893A1, “ACID-BLOCKED PYRROLIDINE CATALYSTS FOR POLYURETHANE FOAM” (Huntsman Petrochemical LLC, priority 2019, published 2026), which cites them from elsewhere.

For the data set the following is noted: refs 2-5: CRC Handbook, U.S. Pat. No. 9,051,442, J. Org. Chem. 1961, J. Chem. Eng. Data 2016.
Broadly, the pKa is the negative logarithm of the acid dissociation constant. Take `CN(C)CCN(C)CCO` [JEFFCAT ® Z-110, N,N,N-trimethylaminoethyl-ethanolamine]: the pKa was 9.18.
With `CN(C)CCOCCO` [JEFFCAT ® ZR-70, 2-(2-dimethylaminoethoxy) ethanol], the pKa was 9.1.
Take `CN(C)C1CCCCC1` [dimethylcyclohexylamine, N,N-dimethylcyclohexylamine]: the pKa was 10.1.
In the case of `CN(C)CCN(C)CCN(C)C` [PMDETA, pentamethyldiethylenetriamine], the pKa is reported as 9.1.
